In publication PMC4399336 (2015):

System: 15 base pair dsDNA, double labeled (Alexa488 / Alexa568) (DNA, duplex) GGAGACCAGAGGCCT/AGGCCTCTGGTCTCC
Test: FRET and fluorescence lifetime titration (donor 517 nm, acceptor 600 nm)
Settings: 20 °C; 1 μM DNA; intercalation, qualitative; end-to-end distance ratio r1/r0 1.028; buffer not stated

Q: With [Ru+2].c1ccc(-c2ccccn2)nc1.c1ccc(-c2ccccn2)nc1.c1ccc2nc3c4cccnc4c4ncccc4c3nc2c1 as the compound, how does the binding read?
A: Its binding is “yes”.
